According to patent US20200093807A1, “NEW USE OF RIFAMYCIN-NITROIMIDAZOLE CONJUGATE MOLECULE” (TenNor Therapeutics Limited, priority 2017, published 2020):
Values after ≈ are worked out from the molar mass of the structure shown. Read-outs that look alike come from different tables or passages of the source.

Tests used:
[1] = tested on: Veionella parvula ATCC 17745; experiment: MIC, anaerobic agar dilution (CLSI); format: cell-based; settings: 35° C., 42-48 hours
[2] = tested on: Fusobacterium nucleatum ATCC 10953; experiment: MIC, anaerobic agar dilution (CLSI); format: cell-based; settings: ATCC10953, 35° C., 42-48 hours
[3] = tested on: Clostridium perfringens (MET^R) MMX 3521; experiment: microbe, parasite or virus in culture; format: cell-based
[4] = tested on: Peptoniphilus asaccharolyticus ATCC 29743; experiment: MIC, anaerobic agar dilution (CLSI); format: cell-based; settings: ATCC29743, 35° C., 42-48 hours
[5] = tested on: Prevotella bivia MMX 3450; experiment: MIC, anaerobic agar dilution (CLSI); format: cell-based; settings: MMX3450, 35° C., 42-48 hours
[6] = tested on: Bacteroides ovatus (MET^R) MMX 3504; experiment: MIC, anaerobic agar dilution (CLSI); format: cell-based; settings: 35° C., 42-48 hours
[7] = tested on: Peptococcus (niger) ATCC 27731; experiment: MIC, anaerobic agar dilution (CLSI); format: cell-based; settings: ATCC27731, 35° C., 42-48 hours
[8] = tested on: Bacteroides uniformis MMX 1277; experiment: MIC, anaerobic agar dilution (CLSI); format: cell-based; settings: MMX1277
[9] = tested on: Peptostreptococcus anaerobius ATCC 27337; experiment: MIC, anaerobic agar dilution (CLSI); format: cell-based; settings: ATCC27337, 35° C., 42-48 hours
[10] = tested on: Bacteroides fragilis (QC) ATCC 25285; experiment: MIC, anaerobic agar dilution (CLSI); format: cell-based; settings: ATCC25285, 35° C., 42-48 hours
[11] = tested on: Bacteroides gracilis ATCC 33236; experiment: MIC, anaerobic agar dilution (CLSI); format: cell-based; settings: Campylobacter gracilis, ATCC33236
[12] = tested on: Prevotella bivia ATCC 29303; experiment: MIC, anaerobic agar dilution (CLSI); format: cell-based; settings: ATCC29303, 35° C., 42-48 hours
[13] = tested on: Lactobacillus jensenii ATCC 25258; experiment: MIC, anaerobic agar dilution (CLSI); format: cell-based; settings: ATCC25258
[14] = tested on: Prevotella asaccharolytica (MET^R) MMX 3552; experiment: MIC, anaerobic agar dilution (CLSI); format: cell-based; settings: 35° C., 42-48 hours
[15] = tested on: Gardnerella vaginalis ATCC 14018; experiment: MIC, anaerobic agar dilution (CLSI); format: cell-based; settings: ATCC14018, 35° C., 42-48 hours
[16] = tested on: Bacteroides vulgatus MMX 8348; experiment: MIC, anaerobic agar dilution (CLSI); format: cell-based; settings: Phocaeicola vulgatus, MMX8348, 35° C., 42-48 hours
[17] = tested on: Bacteroides thetaiotaomicron (MET^R) MMX 3409; experiment: microbe, parasite or virus in culture; format: cell-based
[18] = tested on: Prevotella intermedia ATCC 25611; experiment: MIC, anaerobic agar dilution (CLSI); format: cell-based; settings: ATCC25611, 35° C., 42-48 hours
[19] = tested on: Fusobacterium nucleatum ATCC 25586; experiment: MIC, anaerobic agar dilution (CLSI); format: cell-based; settings: ATCC25586, 35° C., 42-48 hours
[20] = tested on: Prevotella disiens MMX 3457; experiment: MIC, anaerobic agar dilution (CLSI); format: cell-based; settings: MMX3457, 35° C., 42-48 hours
[21] = tested on: Gardnerella; experiment: MIC, agar dilution, Gardnerella; format: cell-based; settings: Gardnerella as major BV bacteria
[22] = tested on: Prevotella disiens MMX 3446; experiment: MIC, anaerobic agar dilution (CLSI); format: cell-based; settings: MMX3446, 35° C., 42-48 hours
[23] = tested on: Bifidobacterium longum ATCC 15707; experiment: MIC, anaerobic agar dilution (CLSI); format: cell-based; settings: ATCC15707, 35° C., 42-48 hours
[24] = tested on: Mobiluncus (mulieris) ATCC 35243; experiment: MIC, anaerobic agar dilution (CLSI); format: cell-based; settings: ATCC35243, 35° C., 42-48 hours
[25] = tested on: Peptostreptococcus (magnus) ATCC 14956; experiment: MIC, anaerobic agar dilution (CLSI); format: cell-based; settings: Finegoldia magna, ATCC14956, 35° C., 42-48 hours
[26] = tested on: Lactobacillus crispatus ATCC 33820; experiment: MIC, anaerobic agar dilution (CLSI); format: cell-based; settings: ATCC33820
[27] = tested on: Gardnerella vaginalis ATCC 49145; experiment: MIC, anaerobic agar dilution (CLSI); format: cell-based; settings: ATCC49145, 35° C., 42-48 hours
[28] = tested on: Treponema denticola ATCC 35405; experiment: MIC, anaerobic agar dilution (CLSI); format: cell-based; settings: ATCC35405, 35° C., 42-48 hours
[29] = tested on: Actinomyces naeslundii ATCC 12104; experiment: MIC, anaerobic agar dilution (CLSI); format: cell-based; settings: ATCC12104, 35° C., 42-48 hours
[30] = tested on: Anaerococcus (Anaerococcus(prevotii)) ATCC 9321; experiment: MIC, anaerobic agar dilution (CLSI); format: cell-based; settings: 35° C., 42-48 hours
[31] = tested on: Bifidobacterium (breve) ATCC 15698; experiment: MIC, anaerobic agar dilution (CLSI); format: cell-based; settings: ATCC15698, 35° C., 42-48 hours
[32] = tested on: Bacteroides fragilis (MET^R) MMX 3387; experiment: MIC, anaerobic agar dilution (CLSI); format: cell-based
[33] = tested on: Bacteroides vulgatus (MET^R) MMX 3490; experiment: MIC, anaerobic agar dilution (CLSI); format: cell-based; settings: Phocaeicola vulgatus
[34] = tested on: Atopobium vaginae BAA-55; experiment: MIC, anaerobic agar dilution (CLSI); format: cell-based; settings: Fannyhessea vaginae, BAA55
[35] = tested on: Escherichia coli; settings: several bacteria such as Escherichia coli; U.S. Pat. No. 7,678,791 B2; cited from earlier work
[36] = tested on: Eubacterium (rectale) ATCC 33656; experiment: MIC, anaerobic agar dilution (CLSI); format: cell-based; settings: Agathobacter rectalis, ATCC33656, 35° C., 42-48 hours
[37] = tested on: Prevotella bivia (MET^R) MMX 3454; experiment: MIC, anaerobic agar dilution (CLSI); format: cell-based; settings: 35° C., 42-48 hours
[38] = tested on: Mobiluncus (curtisii subsp. curtisii) ATCC 35241; experiment: MIC, anaerobic agar dilution (CLSI); format: cell-based; settings: ATCC35241, 35° C., 42-48 hours
[39] = tested on: Clostridium sporogenes ATCC 19404; experiment: MIC, anaerobic agar dilution (CLSI); format: cell-based; settings: ATCC19404, 35° C., 42-48 hours
[40] = tested on: Lactobacillus gasseri ATCC 33323; experiment: MIC, anaerobic agar dilution (CLSI); format: cell-based; settings: ATCC33323
[41] = tested on: Bacteroides fragilis (QC) ATCC 25285; settings: range printed in parentheses; cited from earlier work
[42] = tested on: Bacterial Vaginosis (BV); settings: within 3 months; cited from earlier work

CO[C@H]1/C=C/O[C@@]2(C)Oc3c(C)c(O)c4c(c3C2=O)C2=NC3(CCN(CCn5c([N+](=O)[O-])cnc5C)CC3)NC2=C(NC(=O)/C(C)=C\C=C\[C@H](C)[C@H](O)[C@@H](C)[C@@H](O)[C@@H](C)[C@H](OC(C)=O)[C@@H]1C)C4=O [Compound I, 4-deoxy-3,4-[2-spiro-[2-(2-methyl-5-nitro-imidazole-1-yl)ethyl]-piperidine-4-yl]-(1-hydrogen)-imidazo-(2,5-dihydro) rifamycin S]
MIC [1]: 2 µg/mL (≈ 2.12 µM)
MIC [2]: 0.12 µg/mL (≈ 0.127 µM)
MIC [3]: 2 µg/mL (≈ 2.12 µM)
MIC [4]: 0.008 µg/mL (≈ 0.00847 µM)
MIC [5]: 0.0005 µg/mL (≈ 0.00053 µM)
MIC [6]: 0.12 µg/mL (≈ 0.127 µM)
MIC [7]: 0.0005 µg/mL (≈ 0.00053 µM)
MIC ([8]; Bacteroides uniformis MMX 1277, anaerobic, 35° C., 42-48 hours, read-out: MIC): 0.03 µg/mL (≈ 0.0318 µM)
MIC [9]: 0.002 µg/mL (≈ 0.00212 µM)
MIC [10]: 0.03 µg/mL (≈ 0.0318 µM)
MIC ([11]; Bacteroides gracilis ATCC 33236, anaerobic, 35° C., 42-48 hours, read-out: MIC): 0.5 µg/mL (≈ 0.53 µM)
MIC [12]: 0.015 µg/mL (≈ 0.0159 µM)
MIC ([13]; Lactobacillus jensenii ATCC 25258, anaerobic, 35° C., 42-48 hours, read-out: MIC): 0.008 µg/mL (≈ 0.00847 µM)
MIC [14]: 0.008 µg/mL (≈ 0.00847 µM)
MIC [15]: 0.004 µg/mL (≈ 0.00424 µM)
MIC [16]: 0.03 µg/mL (≈ 0.0318 µM)
MIC ([17]; Bacteroides thetaiotaomicron (MET^R) MMX 3409, anaerobic, 35° C., 42-48 hours, read-out: MIC): 0.03 µg/mL (≈ 0.0318 µM)
MIC [18]: 0.0005 µg/mL (≈ 0.00053 µM)
MIC [19]: 0.001 µg/mL (≈ 0.00106 µM)
MIC [20]: 0.008 µg/mL (≈ 0.00847 µM)
MIC [21]: 0.004 µg/mL (≈ 0.00424 µM)
MIC [22]: 0.015 µg/mL (≈ 0.0159 µM)
MIC [23]: 0.015 µg/mL (≈ 0.0159 µM)
MIC [24]: 0.001 µg/mL (≈ 0.00106 µM)
MIC [25]: 0.0005 µg/mL (≈ 0.00053 µM)
MIC ([26]; Lactobacillus crispatus ATCC 33820, anaerobic, 35° C., 42-48 hours, read-out: MIC): 4 µg/mL (≈ 4.24 µM)
MIC [27]: 0.004 µg/mL (≈ 0.00424 µM)
MIC [28]: 0.002 µg/mL (≈ 0.00212 µM)
MIC [29]: 0.001 µg/mL (≈ 0.00106 µM)
MIC [30]: 0.0005 µg/mL (≈ 0.00053 µM)
MIC [31]: 0.015 µg/mL (≈ 0.0159 µM)
MIC ([32]; Bacteroides fragilis (MET^R) MMX 3387, anaerobic, 35° C., 42-48 hours, read-out: MIC): 0.015 µg/mL (≈ 0.0159 µM)
MIC ([33]; Bacteroides vulgatus (MET^R) MMX 3490, anaerobic, 35° C., 42-48 hours, read-out: MIC): 0.03 µg/mL (≈ 0.0318 µM)
MIC ([34]; Atopobium vaginae BAA-55, anaerobic, 35° C., 42-48 hours, read-out: MIC): 0.03 µg/mL (≈ 0.0318 µM)
antimicrobial activity [35]: has antimicrobial activity
MIC [36]: 0.0005 µg/mL (≈ 0.00053 µM)
MIC [37]: 0.015 µg/mL (≈ 0.0159 µM)
MIC [38]: 0.002 µg/mL (≈ 0.00212 µM)
MIC [39]: 0.015 µg/mL (≈ 0.0159 µM)
MIC ([40]; Lactobacillus gasseri ATCC 33323, anaerobic, 35° C., 42-48 hours, read-out: MIC): 0.015 µg/mL (≈ 0.0159 µM)

Cc1ncc([N+](=O)[O-])n1CCO [Metronidazole]
MIC [1]: 2 µg/mL (≈ 11.7 µM)
MIC [2]: 0.06 µg/mL (≈ 0.351 µM)
MIC [3]: > 256 µg/mL
MIC [4]: 0.5 µg/mL (≈ 2.92 µM)
MIC [5]: 1 µg/mL (≈ 5.84 µM)
MIC [6]: 2 µg/mL (≈ 11.7 µM)
MIC [7]: 0.5 µg/mL (≈ 2.92 µM)
MIC ([8]; Bacteroides uniformis): > 256 µg/mL
MIC [9]: 0.25 µg/mL (≈ 1.46 µM)
MIC [10]: 1 µg/mL (≈ 5.84 µM)
MIC [11]: > 256 µg/mL
MIC [12]: 1 µg/mL (≈ 5.84 µM)
MIC ([13]; Lactobacillus jensenii): > 256 µg/mL
MIC [14]: 1 µg/mL (≈ 5.84 µM)
MIC [15]: 4 µg/mL (≈ 23.4 µM)
MIC [16]: 1 µg/mL (≈ 5.84 µM)
MIC ([17]; Bacteroides thetaiotaomicron): 2 µg/mL (≈ 11.7 µM)
MIC [18]: 1 µg/mL (≈ 5.84 µM)
MIC [19]: 2 µg/mL (≈ 11.7 µM)
MIC [20]: 0.5 µg/mL (≈ 2.92 µM)
MIC [21]: 4 µg/mL (≈ 23.4 µM)
MIC [22]: 0.5 µg/mL (≈ 2.92 µM)
MIC [23]: 8 µg/mL (≈ 46.7 µM)
MIC [24]: 0.5 µg/mL (≈ 2.92 µM)
MIC range in parentheses (QC strain reference range) [41]: 0.25 to 1 µg/mL
MIC [25]: 1 µg/mL (≈ 5.84 µM)
MIC ([26]; Lactobacillus crispatus): > 256 µg/mL
recurrence rate [42]: up to 58%
MIC [27]: 4 µg/mL (≈ 23.4 µM)
MIC [28]: 0.5 µg/mL (≈ 2.92 µM)
MIC [29]: 256 µg/mL (≈ 1500 µM)
MIC [30]: 2 µg/mL (≈ 11.7 µM)
MIC [31]: 8 µg/mL (≈ 46.7 µM)
MIC ([32]; Bacteroides fragilis): > 256 µg/mL
MIC [33]: 128 µg/mL (≈ 748 µM)
MIC [34]: 128 µg/mL (≈ 748 µM)
MIC [36]: 0.5 µg/mL (≈ 2.92 µM)
MIC [37]: 0.5 µg/mL (≈ 2.92 µM)
MIC [38]: 2 µg/mL (≈ 11.7 µM)
MIC [39]: 0.06 µg/mL (≈ 0.351 µM)
MIC ([40]; Lactobacillus gasseri): > 256 µg/mL
